Data from patent US9254288B2, “Susceptibility of tumors to tyrosine kinase inhibitors and treatment thereof” (THE TRANSLATIONAL GENOMICS RESEARCH INSTITUTE, priority 2012, dated 2016).

Key:
[1] = tested on: JHUEM-2 cells expressing FGFR2N550K; assay: JHUEM-2 cells stably expressing FGFR2N550K, cell viability; format: cell-based; details: JHUEM-2 FGFR2N550K vs control lines (FIG. 8A)
MFE280 = details: MFE280, FGFR-mutant EC line; cited from earlier work
MFE296 = details: MFE296, carries N550K FGFR2 mutation; cited from earlier work
BaF3/FGFR2b wildtype = assay: BaF3 cell viability (ViaLight), wild-type FGFR2b; format: cell-based, murine; details: Mus musculus, BaF3, 72 h, read-out: IC50 value in BaF3/FGFR2b wildtype
EI = assay: Endometrial cancer cell viability, EI; format: cell-based; details: 72 h
BaF3/FGFR2b N550K = assay: BaF3 cell viability (ViaLight), FGFR2b N550K; format: cell-based, murine; details: for activity against or resistance of N550K, cell viability: BaF3 N550K
[2] = tested on: stable BaF3-FGFR2 cells, dovitinib-resistant FGFR2 mutants; assay: BaF3 cell viability, panel of dovitinib-resistant FGFR2 mutations; details: FGF10-induced proliferation
Protocol: (§1) pEF1a.FGFR2b.IRES.neo or the various FGFR2b mutant plasmids were introduced into BaF3 cells using the Amaxa nucleofector kit V, according to the manufacturer's instructions (Amaxa, Walkersville, Md.). Cells were selected in growth media containing 1200 μg/ml G418 and 5 ng/ml IL3 for 14 days and frozen down.
(§2) After 72 hours, cell viability was measured using the ViaLight kit (Lonza, Walkersville, Md.). Values were normalized to DMSO vehicle control wells and IC50 values generated by nonlinear regression analysis with variable slope using Prism software version 4.0c (GraphPad Software, San Diego, Calif.). […] Following 72 hours of drug treatment, cell viability was assessed using the CyQUANT Cell Proliferation Assay Kit (Life Technologies, Carlsbad, Calif.). Values were normalized to DMSO vehicle control wells and IC50 values calculated as described above. Proliferation assays were performed in triplicate on two independent days and the results averaged.

AN3CA = details: cited from earlier work
[3] = tested on: endometrial cancer cell lines; assay: Endometrial cancer cell line panel viability (CyQUANT); details: FGFR2 mutant and wild-type endometrial cancer lines, 72 hours
Protocol: as §2

[4] = tested on: BaF3 cells expressing the E719G mutant FGFR2; assay: BaF3 cell viability, FGFR2b E719G; format: cell-based, murine; details: E719G alone vs wild-type FGFR2
BaF3 FGFR2 V565I = assay: BaF3 cell viability, FGFR2b V565I gatekeeper mutant; format: cell-based, murine
EJ = assay: Endometrial cancer cell viability, EJ; format: cell-based; details: Homo sapiens, 72 h
EN1078D = assay: Endometrial cancer cell viability, EN1078D; format: cell-based; details: 72 h
BaF3 FGFR2 K660E = assay: BaF3 cell viability, FGFR2 K660E
Protocol: as §1, §2

## CCN(CC)CCCCNc1ncc2cc(-c3cc(OC)cc(OC)c3)c(NC(=O)NC(C)(C)C)nc2n1 [PD173074]
[1]
  fold increase in the IC50: ~5 fold
MFE280
  growth arrest and cell death: induced G1 growth arrest and cell death
MFE296
  sensitivity to FGFR inhibition: sensitive
BaF3/FGFR2b wildtype
  IC50: 0.0045 µM
EI
  IC50: > 4 µM
BaF3/FGFR2b N550K; BaF3/FGFR2b N550K vs wildtype
  fold difference in IC50, N550K versus wildtype: over 170 fold
BaF3/FGFR2b N550K
  activity against or resistance of N550K, cell viability: greatest resistance
BaF3/FGFR2b N550K; Mus musculus, BaF3, 72 h, read-out: IC50 value in N550K resistance cells
  IC50: 0.776 µM
[2]
  sensitivity or resistance of the FGFR2 mutation panel, cell viability: imparted resistance
AN3CA; FGFR-mutant EC line
  growth arrest and cell death: induced G1 growth arrest and cell death
AN3CA; carries N550K FGFR2 mutation
  sensitivity to FGFR inhibition: sensitive
[3]
  order of sensitivity across the cell line panel: least sensitive
[4]
  resistance conferred by E719G mutation: did not induce resistance
BaF3 FGFR2 V565I
  activity against or resistance of V565I gatekeeper mutation, cell viability: greatest resistance
EJ
  IC50: > 4 µM
EN1078D
  IC50: > 4 µM

## CNC(=O)c1cc(Oc2ccc(NC(=O)Nc3cc(C(C)(C)C)nn3-c3ccc4ncccc4c3)c(F)c2)ccn1 [DCC2036]
[2]
  sensitivity or resistance of the FGFR2 mutation panel, cell viability: most FGFR2 kinase mutations except N550K from this BaF3 resistance screen are sensitive

## CCN1CCN(c2ccc(Nc3cc(N(C)C(=O)Nc4c(Cl)c(OC)cc(OC)c4Cl)ncn3)cc2)CC1 [BGJ398]
BaF3 FGFR2 K660E
  activity against K660E activating mutation, cell viability: good activity
BaF3/FGFR2b N550K
  activity against or resistance of N550K, cell viability: good activity
[2]
  sensitivity or resistance of the FGFR2 mutation panel, cell viability: all FGFR2 kinase mutations except the V565I from the mutation panel are sensitive
